Drawing on the NIST ThermoML archive (doi:10.1021/acs.jced.9b00411), this text covers Triple point temperature for one compound.

Numbers after ± are expanded uncertainties.

For this series the following is noted: Crystal; DSC.

Turning to `Nc1ccc(S(N)(=O)=O)cc1` [4-aminobenzenesulfonamide], the Triple point temperature was 437.78 ± 1.2 K.
